The term IC50 denotes the concentration needed to halve the response being measured.

The target in this experiment is T1, proton pump (H+/K+-ATPase), porcine gastric vesicles (Sus scrofa, UniProt P19156).
T1 construct: reaction buffer (50 mmol/L Tris-Hepes buffer, pH 6.4) containing porcine gastric vesicles; from tissue; host or cells: porcine gastric mucosa (gastric vesicles prepared by centrifugation)
T1 sequence (P19156 2-1034 limits assumed): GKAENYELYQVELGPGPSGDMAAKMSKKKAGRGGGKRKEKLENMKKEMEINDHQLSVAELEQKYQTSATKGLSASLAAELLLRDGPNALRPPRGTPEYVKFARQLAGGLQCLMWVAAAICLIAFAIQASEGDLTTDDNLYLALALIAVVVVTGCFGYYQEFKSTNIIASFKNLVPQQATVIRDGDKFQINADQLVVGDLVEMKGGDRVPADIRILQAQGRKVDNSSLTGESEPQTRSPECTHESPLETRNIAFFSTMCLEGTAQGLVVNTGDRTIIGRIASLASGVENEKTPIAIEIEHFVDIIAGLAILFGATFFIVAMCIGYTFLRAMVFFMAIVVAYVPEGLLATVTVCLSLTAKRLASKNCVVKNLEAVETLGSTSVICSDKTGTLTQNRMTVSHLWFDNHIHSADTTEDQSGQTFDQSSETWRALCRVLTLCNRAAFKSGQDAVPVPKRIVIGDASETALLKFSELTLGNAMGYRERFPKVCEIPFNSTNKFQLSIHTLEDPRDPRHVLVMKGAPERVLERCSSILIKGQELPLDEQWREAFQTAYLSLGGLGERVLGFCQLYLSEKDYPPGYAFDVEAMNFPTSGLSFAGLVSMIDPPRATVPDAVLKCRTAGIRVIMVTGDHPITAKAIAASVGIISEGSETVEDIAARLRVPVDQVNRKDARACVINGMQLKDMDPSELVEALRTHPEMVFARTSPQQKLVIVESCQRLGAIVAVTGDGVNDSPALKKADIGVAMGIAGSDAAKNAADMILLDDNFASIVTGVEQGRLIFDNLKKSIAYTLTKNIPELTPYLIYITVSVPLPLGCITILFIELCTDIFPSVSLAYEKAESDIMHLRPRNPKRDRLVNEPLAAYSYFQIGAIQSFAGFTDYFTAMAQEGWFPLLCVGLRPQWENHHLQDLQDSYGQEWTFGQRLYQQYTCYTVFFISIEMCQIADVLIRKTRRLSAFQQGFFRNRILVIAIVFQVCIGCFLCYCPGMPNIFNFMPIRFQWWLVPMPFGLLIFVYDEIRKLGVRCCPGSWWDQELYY
T1 sequence (P18434 whole entry partner): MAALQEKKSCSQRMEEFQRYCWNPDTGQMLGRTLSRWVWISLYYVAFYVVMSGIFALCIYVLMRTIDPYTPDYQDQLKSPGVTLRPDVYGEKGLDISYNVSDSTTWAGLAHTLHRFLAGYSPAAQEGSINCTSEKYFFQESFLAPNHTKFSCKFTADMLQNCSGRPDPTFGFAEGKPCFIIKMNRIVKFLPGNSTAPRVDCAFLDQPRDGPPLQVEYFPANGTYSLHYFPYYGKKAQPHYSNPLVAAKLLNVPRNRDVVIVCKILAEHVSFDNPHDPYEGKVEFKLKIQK
In words: Inhibitory effects against proton pump (H+/K+-ATPase) activity, malachite green phosphate assay. The experiment is classed as biochemical. The note with it: pH 6.4, 37° C., K+-dependent activity. How it is done: Test Example 1: Preparation of Gastric Vesicles
Gastric vesicles used in the experiment were prepared by separation from porcine gastric mucosa according to a centrifugation method [Saccomani G, et al., A Nonelectrogenic H^+ Pump in Plasma Membranes of Hog Stomach, J Biol Chem., 1976, 251 (23), 7690-8]. Next, the protein content of the gastric vesicles was quantified using a bicinchoninic acid kit [Smith P K, et al., Measurement of protein using bicinchoninic acid, Anal Biochem., 1985, 150 (1), 76-85)].
Test Example 2: Measurement of Inhibitory Effects Against Proton Pump (H^+/K^+-ATPase) Activity
The inhibitory effects of the compounds against proton pump activity were calculated based on the pump activity determined in the presence of K^+ ions excluding the pump activity determined in the absence of K^+ ions. The inhibitory effects against proton pump activity were measured in 96-well plates, and all reactions were performed with a reaction volume of […] at 37° C. Specifically, 10 μm of valinomycin and each concentration of each compound were pre-incubated in a reaction buffer (50 mmol/L Tris-Hepes buffer, pH 6.4) containing porcine gastric vesicles for 15 minutes. For negative and positive control groups, 1% DMSO was added to buffer, and for test groups, 1% DMSO and a dilution of each concentration of each compound were added. Next, 0.2 mmol/L of adenosine triphosphate (ATP) was added to the reaction buffer and incubated at 37° C. for 40 minutes. After completion of the incubation, a malachite green solution was added to the reaction buffer and incubated for 30 minutes, and the amount of inorganic phosphate in the reaction buffer was measured by colorimetry using a malachite green phosphate assay Kit (Bioassay Systems). For colorimetry, the OD (optical density) at 620 nm was measured using a microplate reader [Synergy H4, hybrid multimode microplate reader, BioTek]. The percent inhibition of proton pump (H^+/K^+-ATPase) was determined based on the OD value of the control group and the OD values of various concentrations of the test compounds, and the IC50 of each test compound was calculated using the Logistic 4-parameter function of Sigmaplot 8.0 program.
For the molecule `Cc1cc(F)cc(C)c1CNc1cc(C(=O)N2CCC2)cn2c(C)c(C)nc12` [Example 35, azetidin-1-yl{8-[(4-fluoro-2,6-dimethylbenzyl)amino]-2,3-dimethylimidazo[1,2-α]pyridin-6-yl}methanone], the IC50 was 16 nM.
As for `Cc1ccc(Cl)c(C)c1CNc1cc(C(=O)N2CCC2)cn2c(C)c(C)nc12` [Example 45, azetidin-1-yl{8-[(3-chloro-2,6-dimethylbenzyl)amino]-2,3-dimethylimidazo[1,2-α]pyridin-6-yl}methanone], the IC50 was found to be 81 nM.
On to `Cc1cccc(C)c1CNc1cc(C(=O)N2CCC2CO)cn2c(C)c(C)nc12` (stereo not drawn) [Example 17, {8-[(2,6-dimethylbenzyl)amino]-2,3-dimethylimidazo[1,2-α]pyridin-6-yl}[2-(hydroxymethyl)azetidin-1-yl]methanone], for which the half-maximal inhibitory concentration (IC50) amounted to 180 nM.
As for `Cc1ccc(Cl)c(C)c1CNc1cc(C(=O)N2CC(F)C2)cn2c(C)c(C)nc12` [Example 47, {8-[(3-chloro-2,6-dimethylbenzyl)amino]-2,3-dimethylimidazo[1,2-α]pyridin-6-yl}(3-fluoroazetidin-1-yl)methanone], the IC50 is 624 nM.
For the molecule `Cc1cc(F)ccc1CNc1cc(C(=O)N2CCC2)cn2c(C)c(C)nc12` [Example 28, azetidin-1-yl {8-[(4-fluoro-2-methylbenzyl)amino]-2,3-dimethylimidazo[1,2-α]pyridin-6-yl}methanone], the IC50 came out at 103 nM.
For `COC1CN(C(=O)c2cc(NCc3c(C)cccc3C)c3nc(C)c(C)n3c2)C1` [Example 3, {8-[(2,6-dimethylbenzyl)amino]-2,3-dimethylimidazo[1,2-α]pyridin-6-yl}(3-methoxyazetidin-1-yl)methanone], the IC50 came to 90 nM.
As to `Cc1cccc(C)c1CNc1cc(C(=O)N2CC(C(C)O)C2)cn2c(C)c(C)nc12` (stereo not drawn) [Example 15, {8-[(2,6-dimethylbenzyl)amino]-2,3-dimethylimidazo[1,2-α]pyridin-6-yl}[3-(1-hydroxyethyl)azetidin-1-yl]methanone], the IC50 stood at 72 nM.
Next, `Cc1cccc(C)c1CNc1cc(C(=O)N2CC3(CNC3)C2)cn2c(C)c(C)nc12` [Example 21, {8-[(2,6-dimethylbenzyl)amino]-2,3-dimethylimidazo[1,2-α]pyridin-6-yl}(2,6-diazaspiro[3.3]heptan-2-yl)methanone]: 600 nM; `Cc1cc(F)ccc1CNc1cc(C(=O)N2CC(F)C2)cn2c(C)c(C)nc12` [Example 29, {8-[(4-fluoro-2-methylbenzyl)amino]-2,3-dimethylimidazo[1,2-α]pyridin-6-yl}(3-fluoroazetidin-1-yl)methanone]: 645 nM; `COC1(C)CN(C(=O)c2cc(NCc3c(C)cccc3C)c3nc(C)c(C)n3c2)C1` [Example 32, {8-[(2,6-dimethylbenzyl)amino]-2,3-dimethylimidazo[1,2-α]pyridin-6-yl}(3-methoxy-3-methylazetidin-1-yl)methanone]: 187 nM.
In the case of `Cc1ccc(Cl)c(C)c1CNc1cc(C(=O)N2CC(CO)C2)cn2c(C)c(C)nc12` [Example 48, {8-[(3-chloro-2,6-dimethylbenzyl)amino]-2,3-dimethylimidazo[1,2-α]pyridin-6-yl}[3-(hydroxymethyl)azetidin-1-yl]methanone], the concentration for half-maximal inhibition (IC50) amounted to 102 nM.
Consider `Cc1cccc(C)c1CNc1cc(C(=O)N2CC(C(C)(C)O)C2)cn2c(C)c(C)nc12` [Example 16, {8-[(2,6-dimethylbenzyl)amino]-2,3-dimethylimidazo[1,2-α]pyridin-6-yl}[3-(2-hydroxypropan-2-yl)azetidin-1-yl]methanone], for which the IC50 is 122 nM.
With `Cc1cc(F)ccc1CNc1cc(C(=O)N2CC(O)C2)cn2c(C)c(C)nc12` [Example 27, {8-[(4-fluoro-2-methylbenzyl)amino]-2,3-dimethylimidazo[1,2-α]pyridin-6-yl}(3-hydroxyazetidin-1-yl)methanone], the IC50 stood at 135 nM.
For `CCOC1CN(C(=O)c2cc(NCc3c(C)cccc3C)c3nc(C)c(C)n3c2)C1` [Example 4, {8-[(2,6-dimethylbenzyl)amino]-2,3-dimethylimidazo[1,2-α]pyridin-6-yl}(3-ethoxyazetidin-1-yl)methanone], the IC50 amounted to 93 nM.
Regarding `Cc1ccc(F)c(C)c1CNc1cc(C(=O)N2CCC2)cn2c(C)c(C)nc12` [Example 42, azetidin-1-yl{8-[(3-fluoro-2,6-dimethylbenzyl)amino]-2,3-dimethylimidazo[1,2-α]pyridin-6-yl}methanone], the IC50 amounted to 85 nM.
As for `Cc1ccc(F)c(C)c1CNc1cc(C(=O)N2CC(CO)C2)cn2c(C)c(C)nc12` [Example 44, {8-[(3-fluoro-2,6-dimethylbenzyl)amino]-2,3-dimethylimidazo[1,2-α]pyridin-6-yl}[3-(hydroxymethyl)azetidin-1-yl]methanone], the IC50 came to 61 nM.
As to `Cc1cc(F)cc(C)c1CNc1cc(C(=O)N2CC(C)(O)C2)cn2c(C)c(C)nc12` [Example 38, {8-[(4-fluoro-2,6-dimethylbenzyl)amino]-2,3-dimethylimidazo[1,2-α]pyridin-6-yl}(3-hydroxy-3-methylazetidin-1-yl)methanone], the IC50 turned out to be 41 nM.
Next, `CC(=O)OC1CN(C(=O)c2cc(NCc3c(C)cccc3C)c3nc(C)c(C)n3c2)C1` [Example 2, 1-{8-[(2,6-dimethylbenzyl)amino]-2,3-dimethylimidazo[1,2-α]pyridine-6-carbonyl}azetidin-3-yl acetate]: 128 nM; `CC(=O)C1CN(C(=O)c2cc(NCc3c(C)cccc3C)c3nc(C)c(C)n3c2)C1` [Example 18, 1-{1-[8-({2,6-dimethylbenzyl}amino)-2,3-dimethylimidazo[1,2-α]pyridine-6-carbonyl]azetidin-3-yl}ethanone]: 140 nM.
On to `Cc1cccc(C)c1CNc1cc(C(=O)N2CC3(COC3)C2)cn2c(C)c(C)nc12` [Example 22, {8-[(2,6-dimethylbenzyl)amino]-2,3-dimethylimidazo[1,2-α]pyridin-6-yl}(2-oxa-6-azaspiro[3.3]heptan-6-yl)methanone], for which the IC50 was determined as 79 nM.
Take `Cc1cccc(C)c1CNc1cc(C(=O)N2CC(F)(CO)C2)cn2c(C)c(C)nc12` [Example 13, {8-[(2,6-dimethylbenzyl)amino]-2,3-dimethylimidazo[1,2-α]pyridin-6-yl}[3-fluoro-3-(hydroxymethyl)azetidin-1-yl]methanone]: the IC50 was found to be 119 nM.
Next, `Cc1cccc(C)c1CNc1cc(C(=O)N2CC(S(C)(=O)=O)C2)cn2c(C)c(C)nc12` [Example 19, {8-[(2,6-dimethylbenzyl)amino]-2,3-dimethylimidazo[1,2-α]pyridin-6-yl}[3-(methylsulfonyl)azetidin-1-yl]methanone]: 117 nM.
Next, `Cc1ccc(F)c(C)c1CNc1cc(C(=O)N2CC(F)C2)cn2c(C)c(C)nc12` [Example 43, {8-[(3-fluoro-2,6-dimethylbenzyl)amino]-2,3-dimethylimidazo[1,2-α]pyridin-6-yl}(3-fluoroazetidin-1-yl)methanone]: 174 nM.
For the molecule `Cc1cc(F)cc(C)c1CNc1cc(C(=O)N2CC(C)C2)cn2c(C)c(C)nc12` [Example 37, {8-[(4-fluoro-2,6-dimethylbenzyl)amino]-2,3-dimethylimidazo[1,2-α]pyridin-6-yl}(3-methylazetidin-1-yl)methanone], the half-inhibitory concentration (IC50) was 21 nM.
Regarding `COCCOC1CN(C(=O)c2cc(NCc3c(C)cccc3C)c3nc(C)c(C)n3c2)C1` [Example 5, {8-[(2,6-dimethylbenzyl)amino]-2,3-dimethylimidazo[1,2-α]pyridin-6-yl}[3-(2-methoxyethoxy)azetidin-1-yl]methanone], the IC50 was determined as 117 nM.
As for `Cc1cc(F)ccc1CNc1cc(C(=O)N2CC(C)C2)cn2c(C)c(C)nc12` [Example 30, {8-[(4-fluoro-2-methylbenzyl)amino]-2,3-dimethylimidazo[1,2-α]pyridin-6-yl}(3-methylazetidin-1-yl)methanone], the IC50 turned out to be 271 nM.
Consider `Cc1ccc(F)c(C)c1CNc1cc(C(=O)N2CC(O)C2)cn2c(C)c(C)nc12` [Example 41, {8-[(3-fluoro-2,6-dimethylbenzyl)amino]-2,3-dimethylimidazo[1,2-α]pyridin-6-yl}(3-hydroxyazetidin-1-yl)methanone], for which the IC50 came out at 149 nM.
Consider `COCC1CN(C(=O)c2cc(NCc3c(C)cccc3C)c3nc(C)c(C)n3c2)C1` [Example 12, {8-[(2,6-dimethylbenzyl)amino]-2,3-dimethylimidazo[1,2-α]pyridin-6-yl}[3-(methoxymethyl)azetidin-1-yl]methanone], for which the IC50 was determined as 65 nM.

For the origin of these results see patent US10696671B2, “Imidazo[1,2-A]pyridine derivatives, methods for preparing the same and use thereof” (Jeil Pharmaceutical Co., Ltd., priority 2016, dated 2020).
